Assay results taken from PubChem BioAssay (NCI).
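How tested: cells in 96-well plates exposed to compound for 48 hours at five concentrations. GI50 = concentration required for 50% inhibition of growth. TGI: total growth inhibition.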

Legend:
Test in all cases: NCI-60 cell line screen, 48 h
786-0 renal = test system: 786-0 renal
A498 renal = test system: A498 renal
A549 NSCLC = test system: A549 NSCLC
ACHN renal = test system: ACHN renal
BT-549 breast = test system: BT-549 breast
CAKI-1 renal = test system: CAKI-1 renal
COLO 205 colon = test system: COLO 205 colon
DU-145 prostate = test system: DU-145 prostate
EKVX NSCLC = test system: EKVX NSCLC
HCT-116 colon = test system: HCT-116 colon
HCT-15 colon = test system: HCT-15 colon
HL-60(TB) leukemia = test system: HL-60(TB) leukemia
HOP-62 NSCLC = test system: HOP-62 NSCLC
HS 578T breast = test system: HS 578T breast
HT29 colon = test system: HT29 colon
IGROV1 ovarian = test system: IGROV1 ovarian
K-562 leukemia = test system: K-562 leukemia
KM12 colon = test system: KM12 colon
LOX IMVI melanoma = test system: LOX IMVI melanoma
M14 melanoma = test system: M14 melanoma
MALME-3M melanoma = test system: MALME-3M melanoma
MCF7 breast = test system: MCF7 breast
MDA-MB-231 breast = test system: MDA-MB-231 breast
MDA-MB-435 = test system: MDA-MB-435
NCI-H226 lung = test system: NCI-H226 lung
NCI-H23 lung = test system: NCI-H23 lung
NCI-H460 lung = test system: NCI-H460 lung
NCI-H522 lung = test system: NCI-H522 lung
OVCAR-3 ovarian = test system: OVCAR-3 ovarian
OVCAR-4 ovarian = test system: OVCAR-4 ovarian
OVCAR-5 ovarian = test system: OVCAR-5 ovarian
OVCAR-8 ovarian = test system: OVCAR-8 ovarian
RXF 393 renal = test system: RXF 393 renal
SF-268 CNS = test system: SF-268 CNS
SF-295 CNS = test system: SF-295 CNS
SF-539 CNS = test system: SF-539 CNS
SK-MEL-2 melanoma = test system: SK-MEL-2 melanoma
SK-MEL-28 melanoma = test system: SK-MEL-28 melanoma
SK-MEL-5 melanoma = test system: SK-MEL-5 melanoma
SK-OV-3 ovarian = test system: SK-OV-3 ovarian
SN12C renal = test system: SN12C renal
SNB-19 CNS = test system: SNB-19 CNS
SNB-75 CNS = test system: SNB-75 CNS
SR leukemia = test system: SR leukemia
SW-620 colon = test system: SW-620 colon
T-47D breast = test system: T-47D breast
TK-10 renal = test system: TK-10 renal
U251 CNS = test system: U251 CNS
UACC-257 melanoma = test system: UACC-257 melanoma
UACC-62 melanoma = test system: UACC-62 melanoma
UO-31 renal = test system: UO-31 renal
CCRF-CEM leukemia = test system: CCRF-CEM leukemia
HOP-92 NSCLC = test system: HOP-92 NSCLC
MOLT-4 leukemia = test system: MOLT-4 leukemia
NCI/ADR-RES ovarian = test system: NCI/ADR-RES ovarian
PC-3 prostate = test system: PC-3 prostate
RPMI-8226 leukemia = test system: RPMI-8226 leukemia

## C[C@]12CC[C@H]3[C@@H](CC=C4C[C@@H](N5CCCC5)CC[C@@]43C)[C@@H]1C/C(=C\c1cccc(OCCN3CCOCC3)c1)[C@@H]2O
786-0 renal
  GI50: 1.64 µM
  TGI: 3.62 µM
A498 renal
  GI50: 3.52 µM
  TGI: 15 µM
A549 NSCLC
  GI50: 3.48 µM
  TGI: 45.4 µM
ACHN renal
  GI50: 4.29 µM
  TGI: 32.5 µM
BT-549 breast
  GI50: 2.33 µM
  TGI: > 100 µM
CAKI-1 renal
  GI50: 6.91 µM
  TGI: > 100 µM
COLO 205 colon
  GI50: 3.89 µM
  TGI: 39.3 µM
DU-145 prostate
  GI50: 1.85 µM
  TGI: > 100 µM
EKVX NSCLC
  GI50: 8.02 µM
  TGI: > 100 µM
HCT-116 colon
  GI50: 1.66 µM
  TGI: 5.13 µM
HCT-15 colon
  GI50: 2.39 µM
  TGI: > 100 µM
HL-60(TB) leukemia
  GI50: 4.32 µM
  TGI: > 100 µM
HOP-62 NSCLC
  GI50: 2.76 µM
  TGI: 9.83 µM
HS 578T breast
  GI50: 2.88 µM
  TGI: 18.2 µM
HT29 colon
  GI50: 0.532 µM
  TGI: 15.7 µM
IGROV1 ovarian
  GI50: 12.8 µM
  TGI: > 100 µM
K-562 leukemia
  GI50: 2.34 µM
  TGI: > 100 µM
KM12 colon
  GI50: 5.02 µM
  TGI: > 100 µM
LOX IMVI melanoma
  GI50: 2.61 µM
  TGI: 7.43 µM
M14 melanoma
  GI50: 1.96 µM
  TGI: 4.07 µM
MALME-3M melanoma
  GI50: 2.15 µM
  TGI: 6.11 µM
MCF7 breast
  GI50: 19.7 µM
  TGI: 98.1 µM
MDA-MB-231 breast
  GI50: 2.24 µM
  TGI: 5.37 µM
MDA-MB-435
  GI50: 3.64 µM
  TGI: > 100 µM
NCI-H226 lung
  GI50: 22 µM
  TGI: 53.8 µM
NCI-H23 lung
  GI50: 13.3 µM
  TGI: 41.6 µM
NCI-H460 lung
  GI50: 3.28 µM
  TGI: > 100 µM
NCI-H522 lung
  GI50: 8.21 µM
  TGI: 29.7 µM
OVCAR-3 ovarian
  GI50: 2.3 µM
  TGI: 7.55 µM
OVCAR-4 ovarian
  GI50: 13.3 µM
  TGI: 55.2 µM
OVCAR-5 ovarian
  GI50: 31 µM
  TGI: > 100 µM
OVCAR-8 ovarian
  GI50: 3.74 µM
  TGI: 21.7 µM
RXF 393 renal
  GI50: 1.76 µM
  TGI: 3.82 µM
SF-268 CNS
  GI50: 13.3 µM
  TGI: > 100 µM
SF-295 CNS
  GI50: 2.96 µM
  TGI: > 100 µM
SF-539 CNS
  GI50: 1.41 µM
  TGI: 3.38 µM
SK-MEL-2 melanoma
  GI50: 14.1 µM
  TGI: 31.8 µM
SK-MEL-28 melanoma
  GI50: 2.01 µM
  TGI: 3.99 µM
SK-MEL-5 melanoma
  GI50: 2.88 µM
  TGI: 10.6 µM
SK-OV-3 ovarian
  GI50: 17.2 µM
  TGI: 35.1 µM
SN12C renal
  GI50: 25.9 µM
  TGI: > 100 µM
SNB-19 CNS
  GI50: 4.41 µM
  TGI: > 100 µM
SNB-75 CNS
  GI50: 14.6 µM
  TGI: 34.3 µM
SR leukemia
  GI50: 3.03 µM
  TGI: > 100 µM
SW-620 colon
  GI50: 2.82 µM
  TGI: 18.8 µM
T-47D breast
  GI50: 2.67 µM
  TGI: > 100 µM
TK-10 renal
  GI50: 4.15 µM
  TGI: 46.7 µM
U251 CNS
  GI50: 2.95 µM
  TGI: > 100 µM
UACC-257 melanoma
  GI50: 2.55 µM
  TGI: 6.65 µM
UACC-62 melanoma
  GI50: 17.6 µM
  TGI: 33.2 µM
UO-31 renal
  GI50: 3.11 µM
  TGI: 9.97 µM

## Cc1csc2[n+]1-c1ccccc1N(C(=O)Nc1ccccc1)C(C)C2 (stereo not drawn)
786-0 renal
  GI50: 17.7 µM
  TGI: 35.8 µM
A549 NSCLC
  GI50: 36.6 µM
  TGI: > 100 µM
ACHN renal
  GI50: 55.5 µM
  TGI: > 100 µM
BT-549 breast
  GI50: > 100 µM
  TGI: > 100 µM
CAKI-1 renal
  GI50: 84.9 µM
  TGI: > 100 µM
CCRF-CEM leukemia
  GI50: 29.5 µM
  TGI: 69.6 µM
COLO 205 colon
  GI50: > 100 µM
  TGI: > 100 µM
EKVX NSCLC
  GI50: > 100 µM
  TGI: > 100 µM
HCT-116 colon
  GI50: 16.5 µM
  TGI: 31.5 µM
HCT-15 colon
  GI50: > 100 µM
  TGI: > 100 µM
HOP-62 NSCLC
  GI50: 41.9 µM
  TGI: > 100 µM
HOP-92 NSCLC
  GI50: 41.7 µM
  TGI: > 100 µM
HS 578T breast
  GI50: > 100 µM
  TGI: > 100 µM
HT29 colon
  GI50: 36.6 µM
  TGI: > 100 µM
IGROV1 ovarian
  GI50: 80.7 µM
  TGI: > 100 µM
K-562 leukemia
  GI50: > 100 µM
  TGI: > 100 µM
KM12 colon
  GI50: > 100 µM
  TGI: > 100 µM
LOX IMVI melanoma
  GI50: 21.6 µM
  TGI: 48.5 µM
M14 melanoma
  GI50: 43.7 µM
  TGI: > 100 µM
MCF7 breast
  GI50: 48.7 µM
  TGI: > 100 µM
MDA-MB-231 breast
  GI50: 18.6 µM
  TGI: 45.3 µM
MDA-MB-435
  GI50: > 100 µM
  TGI: > 100 µM
MOLT-4 leukemia
  GI50: 88.5 µM
  TGI: > 100 µM
NCI-H226 lung
  GI50: > 100 µM
  TGI: > 100 µM
NCI-H23 lung
  GI50: 35.8 µM
  TGI: > 100 µM
NCI-H460 lung
  GI50: 81 µM
  TGI: > 100 µM
NCI-H522 lung
  GI50: 61.9 µM
  TGI: > 100 µM
NCI/ADR-RES ovarian
  GI50: 25.1 µM
  TGI: 88.4 µM
OVCAR-3 ovarian
  GI50: > 100 µM
  TGI: > 100 µM
OVCAR-5 ovarian
  GI50: 28.6 µM
  TGI: 99.5 µM
OVCAR-8 ovarian
  GI50: > 100 µM
  TGI: > 100 µM
PC-3 prostate
  GI50: 59.1 µM
  TGI: > 100 µM
RPMI-8226 leukemia
  GI50: 67.5 µM
  TGI: > 100 µM
RXF 393 renal
  GI50: 50.8 µM
  TGI: > 100 µM
SF-268 CNS
  GI50: > 100 µM
  TGI: > 100 µM
SF-295 CNS
  GI50: > 100 µM
  TGI: > 100 µM
SK-MEL-2 melanoma
  GI50: > 100 µM
  TGI: > 100 µM
SK-MEL-28 melanoma
  GI50: > 100 µM
  TGI: > 100 µM
SK-MEL-5 melanoma
  GI50: 42.6 µM
  TGI: > 100 µM
SN12C renal
  GI50: > 100 µM
  TGI: > 100 µM
SNB-19 CNS
  GI50: > 100 µM
  TGI: > 100 µM
SW-620 colon
  GI50: 41 µM
  TGI: > 100 µM
T-47D breast
  GI50: > 100 µM
  TGI: > 100 µM
TK-10 renal
  GI50: > 100 µM
  TGI: > 100 µM
U251 CNS
  GI50: 69.4 µM
  TGI: > 100 µM
UACC-257 melanoma
  GI50: > 100 µM
  TGI: > 100 µM
UACC-62 melanoma
  GI50: 60.4 µM
  TGI: > 100 µM
UO-31 renal
  GI50: > 100 µM
  TGI: > 100 µM
